Experimental data taken from ChEMBL document CHEMBL6103626, “Structure-Based Design of New LSD1/EGFRL858R/T790M Dual Inhibitors for Treating EGFR Mutant NSCLC Cancers” (J Med Chem, 2025).
The source made the active and inactive calls. The calls are words filed in the database; no cut-off is given here.

Tests used:
[1] = tested on: Mus musculus; experiment: In vivo inhibition of LSD1 in athymic nude BALB/c mouse xenografted with human NCI-H1975 cells assessed as H3K9me2 accumulation at 1.5 to 3 mg/kg, po daily for 27 days by Western blot analysis; assay type: functional, organism-based; settings: dose 1.5-3 mg/kg, time 27.0 day, tested as the 2H-labelled form
[2] = tested on: NCI-H1975; experiment: Antitumor activity against human NCI-H1975 cells xenografted in athymic nude BALB/c mouse administered orally daily for 27 days; assay type: functional, cell-based; settings: dose 1.5-3 mg/kg, route po, time 27.0 day, tested as the 2H-labelled form
[3] = target: Lysine-specific histone demethylase 1A (Homo sapiens) (UniProt O60341); experiment: Binding affinity to LSD1 in human NCI-H1975 cells assessed as increase in thermal stability incubated for 1 hr followed by 40 to 53 degreeC of heat exposure for 3 mins by CETSA; assay type: cell-based; settings: tested as the 2H-labelled form
[4] = tested on: Mus musculus; experiment: In vivo inhibition of EGFR in athymic nude BALB/c mouse xenografted with human NCI-H1975 cells assessed as decrease in ERK phosphorylation at 1.5 to 3 mg/kg, po daily for 27 days by Western blot analysis; assay type: functional, organism-based; settings: dose 1.5-3 mg/kg, time 27.0 day, tested as the 2H-labelled form
[5] = target: T1, LSD1/CoREST complex (Homo sapiens) (UniProt O60341+Q9UKL0); experiment: Reversible non-covalent inhibition of LSD1/CoREST (unknown origin) using H3K4me2 as substrate assessed as LSD1 activity recovery after LSD1-compound mixture dilution incubated for 1 hr by HRP/Amplex Red based fluorescence assay; assay type: protein-complex assay; settings: tested as the 2H-labelled form
T1 sequence (Q9UKL0 whole entry, looked up, other chains not shown): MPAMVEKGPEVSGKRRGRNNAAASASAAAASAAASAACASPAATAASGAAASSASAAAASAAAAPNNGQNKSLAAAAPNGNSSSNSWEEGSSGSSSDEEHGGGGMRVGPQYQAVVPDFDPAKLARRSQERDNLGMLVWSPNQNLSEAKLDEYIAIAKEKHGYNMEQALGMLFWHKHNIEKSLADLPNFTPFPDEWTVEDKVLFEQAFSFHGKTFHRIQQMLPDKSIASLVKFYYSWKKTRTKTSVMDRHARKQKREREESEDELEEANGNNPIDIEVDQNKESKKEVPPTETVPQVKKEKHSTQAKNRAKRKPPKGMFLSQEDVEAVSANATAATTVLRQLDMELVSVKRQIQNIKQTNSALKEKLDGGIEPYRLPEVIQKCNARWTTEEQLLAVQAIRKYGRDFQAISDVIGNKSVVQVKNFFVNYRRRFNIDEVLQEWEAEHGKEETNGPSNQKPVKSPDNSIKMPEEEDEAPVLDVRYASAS

[6] = tested on: Mus musculus; experiment: In vivo inhibition of EGFR phosphorylation in athymic nude BALB/c mouse xenografted with human NCI-H1975 cells at 1.5 to 3 mg/kg, po daily for 27 days by Western blot analysis; assay type: functional, organism-based; settings: dose 1.5-3 mg/kg, time 27.0 day, tested as the 2H-labelled form
[7] = tested on: Mus musculus; experiment: In vivo inhibition of LSD1 in athymic nude BALB/c mouse xenografted with human NCI-H1975 cells assessed as H3K4me2 accumulation at 1.5 to 3 mg/kg, po daily for 27 days by Western blot analysis; assay type: functional, organism-based; settings: dose 1.5-3 mg/kg, time 27.0 day, tested as the 2H-labelled form
[8] = target: T1, LSD1/CoREST complex (Homo sapiens); experiment: Inhibition of full-length recombinant LSD1 (123 to 852 residues)(unknown origin)/CoREST (305 to 482 residues)(unknown origin) extracted from Escherichia coli using H3K4me2 as substrate at 10 uM preincubated for 5 mins followed by substrate addition measured after 30 mins by HRP/Amplex Red based fluorescence assay relative to control; assay type: protein-complex assay; settings: time 35.0 min, tested as the 2H-labelled form
[9] = target: Lysine-specific histone demethylase 1A (Homo sapiens) (UniProt O60341); experiment: Inhibition of LSD1 in human NCI-H1975 cells assessed as accumulation of H3K4me2 at 0.1 to 10 uM by Western blot analysis; assay type: cell-based; settings: dose 0.1-10 µM, tested as the 2H-labelled form
[10] = target: T1, LSD1/CoREST complex (Homo sapiens); experiment: Inhibition of full-length recombinant LSD1 (123 to 852 residues)(unknown origin)/CoREST (305 to 482 residues)(unknown origin) extracted from Escherichia coli using H3K4me2 as substrate at 1 uM preincubated for 5 mins followed by substrate addition measured after 30 mins by HRP/Amplex Red based fluorescence assay relative to control; assay type: protein-complex assay; settings: time 35.0 min, tested as the 2H-labelled form
[11] = target: Lysine-specific histone demethylase 1A (Homo sapiens) (UniProt O60341); experiment: Inhibition of LSD1 in human NCI-H1975 cells assessed as accumulation of H3K9me2 at 0.1 to 10 uM by Western blot analysis; assay type: cell-based; settings: dose 0.1-10 µM, tested as the 2H-labelled form
[12] = Oral bioavailability in Sprague-Dawley rat at 40 mg/kg measured for 24 hrs by LC-MS/MS analysis; assay type: ADME, organism-based; settings: in vivo
[13] = AUClast in Sprague-Dawley rat at 40 mg/kg, po measured for 24 hrs by LC-MS/MS analysis; assay type: ADME, organism-based; settings: in vivo
[14] = MRT (infinity) in Sprague-Dawley rat at 40 mg/kg, po measured for 24 hrs by LC-MS/MS analysis; assay type: ADME, organism-based; settings: in vivo
[15] = MRT (infinity) in Sprague-Dawley rat at 10 mg/kg, iv measured for 24 hrs by LC-MS/MS analysis; assay type: ADME, organism-based; settings: in vivo
[16] = MRTlast in Sprague-Dawley rat at 40 mg/kg, po measured for 24 hrs by LC-MS/MS analysis; assay type: ADME, organism-based; settings: in vivo
[17] = tested on: NCI-H1975; experiment: Antitumor activity against human NCI-H1975 cells xenografted in athymic nude BALB/c mouse at 3 mg/kg, po daily for 27 days relative to control; assay type: functional; settings: NCI-H1975, 648 h, time 27 day, read-out: TGI
[18] = target: T2, LSD1/CoREST complex (Homo sapiens, UniProt O60341); experiment: Inhibition of full-length recombinant LSD1 (123 to 852 residues)(unknown origin)/CoREST (305 to 482 residues)(unknown origin) extracted from Escherichia coli using H3K4me2 as substrate preincubated for 5 mins followed by substrate addition measured after 30 mins by HRP/Amplex Red based fluorescence assay; assay type: protein-complex assay
[19] = tested on: Osimertinib-resistant NCI-H1975 cell; experiment: Antiproliferative activity against human Osimertinib-resistant NCI-H1975 cells measured after 72 hrs by SRB assay
[20] = Half life in Sprague-Dawley rat at 10 mg/kg, iv measured for 24 hrs by LC-MS/MS analysis; assay type: ADME, organism-based; settings: in vivo
[21] = Antiproliferative activity against human PC9-OR cells measured after 72 hrs by SRB assay
[22] = Antiproliferative activity against human PC9 Gefitinib-resistant (GR) cells measured after 72 hrs by SRB assay; settings: PC9 Gefitinib-resistant (GR) cell
[23] = MRTlast in Sprague-Dawley rat at 10 mg/kg, iv measured for 24 hrs by LC-MS/MS analysis; assay type: ADME, organism-based; settings: in vivo
[24] = Clearance in Sprague-Dawley rat at 10 mg/kg, iv measured for 24 hrs by LC-MS/MS analysis; assay type: ADME, organism-based; settings: in vivo
[25] = target: T2, LSD1/CoREST complex; experiment: Non-competitive inhibition of LSD1/CoREST (unknown origin) using H3K4me2 as substrate incubated for 0.5 hrs by ELISA; assay type: protein-complex assay
[26] = Volume of distribution at steady state in Sprague-Dawley rat at 10 mg/kg, iv measured for 24 hrs by LC-MS/MS analysis; assay type: ADME, organism-based; settings: in vivo, read-out: Vdss
[27] = Half life in Sprague-Dawley rat at 40 mg/kg, po measured for 24 hrs by LC-MS/MS analysis; assay type: ADME, organism-based; settings: in vivo
[28] = AUC (infinity) in Sprague-Dawley rat at 40 mg/kg, po measured for 24 hrs by LC-MS/MS analysis; assay type: ADME, organism-based; settings: in vivo
[29] = Toxicity in athymic nude BALB/c mouse xenografted with human NCI-H1975 cells assessed as drug tolerance at 3 mg/kg, po daily for 27 days; assay type: organism-based; settings: in vivo, 648 h, time 27 day
[30] = tested on: A-431; experiment: Antiproliferative activity against human A-431 cells expressing wild-type EGFR measured after 72 hrs by SRB assay; settings: A-431, 72 h
[31] = Toxicity in athymic nude BALB/c mouse xenografted with human NCI-H1975 cells assessed as body weight loss at 3 mg/kg, po daily for 27 days; assay type: organism-based; settings: in vivo, 648 h, time 27 day
[32] = cells; settings: Homo sapiens, NCI-H1975, 72 h
[33] = AUClast in Sprague-Dawley rat at 10 mg/kg, iv measured for 24 hrs by LC-MS/MS analysis; assay type: ADME, organism-based; settings: in vivo
[34] = Tmax in Sprague-Dawley rat at 40 mg/kg, po measured for 24 hrs by LC-MS/MS analysis; assay type: ADME, organism-based; settings: in vivo
[35] = AUC (infinity) in Sprague-Dawley rat at 10 mg/kg, iv measured for 24 hrs by LC-MS/MS analysis; assay type: ADME, organism-based; settings: in vivo
[36] = Cmax in Sprague-Dawley rat at 40 mg/kg, po measured for 24 hrs by LC-MS/MS analysis; assay type: ADME, organism-based; settings: in vivo
[37] = tested on: PC-9; experiment: Antiproliferative activity against human PC-9 cells expressing EGFR del19 mutant measured after 72 hrs by SRB assay; settings: PC-9, 72 h
[38] = target: Epidermal growth factor receptor (Homo sapiens, UniProt P00533); experiment: Inhibition of wild-type EGFR (unknown origin) using Glu/Tyr as substrate incubated for 1 hr by ELISA
Sequence of Epidermal growth factor receptor (Homo sapiens, UniProt P00533) (P00533 whole entry): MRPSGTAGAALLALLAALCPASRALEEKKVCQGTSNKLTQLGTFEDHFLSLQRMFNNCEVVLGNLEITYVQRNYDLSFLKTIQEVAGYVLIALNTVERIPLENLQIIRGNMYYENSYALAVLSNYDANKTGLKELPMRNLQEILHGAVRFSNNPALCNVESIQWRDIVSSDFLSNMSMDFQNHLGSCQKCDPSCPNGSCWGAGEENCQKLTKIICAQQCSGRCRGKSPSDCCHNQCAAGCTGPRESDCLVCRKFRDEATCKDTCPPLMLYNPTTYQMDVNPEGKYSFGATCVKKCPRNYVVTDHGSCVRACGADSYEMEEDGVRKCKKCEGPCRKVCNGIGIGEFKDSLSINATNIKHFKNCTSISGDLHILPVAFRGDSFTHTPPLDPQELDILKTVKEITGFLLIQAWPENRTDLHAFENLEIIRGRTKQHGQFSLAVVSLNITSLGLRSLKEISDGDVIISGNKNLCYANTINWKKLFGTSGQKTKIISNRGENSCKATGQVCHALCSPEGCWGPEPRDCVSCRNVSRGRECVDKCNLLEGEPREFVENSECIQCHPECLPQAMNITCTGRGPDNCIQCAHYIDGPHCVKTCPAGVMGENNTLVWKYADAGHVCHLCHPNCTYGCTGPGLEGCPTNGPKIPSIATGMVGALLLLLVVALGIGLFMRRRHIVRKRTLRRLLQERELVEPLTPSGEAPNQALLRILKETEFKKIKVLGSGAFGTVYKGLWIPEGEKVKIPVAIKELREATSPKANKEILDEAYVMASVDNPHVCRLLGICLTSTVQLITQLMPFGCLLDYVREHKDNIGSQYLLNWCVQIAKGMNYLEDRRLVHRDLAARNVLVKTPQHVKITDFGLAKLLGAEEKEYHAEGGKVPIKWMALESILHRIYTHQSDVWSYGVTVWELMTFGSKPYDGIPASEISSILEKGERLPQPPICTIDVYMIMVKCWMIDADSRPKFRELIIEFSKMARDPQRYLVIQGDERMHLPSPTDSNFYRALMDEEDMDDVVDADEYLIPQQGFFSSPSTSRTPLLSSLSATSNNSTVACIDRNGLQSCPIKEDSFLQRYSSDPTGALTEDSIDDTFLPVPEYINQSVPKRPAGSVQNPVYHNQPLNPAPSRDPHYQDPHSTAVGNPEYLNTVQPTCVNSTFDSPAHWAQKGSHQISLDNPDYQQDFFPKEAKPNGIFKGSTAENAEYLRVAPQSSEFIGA

[39] = target: Epidermal growth factor receptor (Homo sapiens, UniProt P00533, L858R/T790M); experiment: Inhibition of EGFR L858R/T790M mutant (unknown origin) using Glu/Tyr as substrate incubated for 1 hr by ELISA
Sequence of Epidermal growth factor receptor (Homo sapiens, UniProt P00533, L858R/T790M) (P00533 25-1210 T790M/L858R limits assumed): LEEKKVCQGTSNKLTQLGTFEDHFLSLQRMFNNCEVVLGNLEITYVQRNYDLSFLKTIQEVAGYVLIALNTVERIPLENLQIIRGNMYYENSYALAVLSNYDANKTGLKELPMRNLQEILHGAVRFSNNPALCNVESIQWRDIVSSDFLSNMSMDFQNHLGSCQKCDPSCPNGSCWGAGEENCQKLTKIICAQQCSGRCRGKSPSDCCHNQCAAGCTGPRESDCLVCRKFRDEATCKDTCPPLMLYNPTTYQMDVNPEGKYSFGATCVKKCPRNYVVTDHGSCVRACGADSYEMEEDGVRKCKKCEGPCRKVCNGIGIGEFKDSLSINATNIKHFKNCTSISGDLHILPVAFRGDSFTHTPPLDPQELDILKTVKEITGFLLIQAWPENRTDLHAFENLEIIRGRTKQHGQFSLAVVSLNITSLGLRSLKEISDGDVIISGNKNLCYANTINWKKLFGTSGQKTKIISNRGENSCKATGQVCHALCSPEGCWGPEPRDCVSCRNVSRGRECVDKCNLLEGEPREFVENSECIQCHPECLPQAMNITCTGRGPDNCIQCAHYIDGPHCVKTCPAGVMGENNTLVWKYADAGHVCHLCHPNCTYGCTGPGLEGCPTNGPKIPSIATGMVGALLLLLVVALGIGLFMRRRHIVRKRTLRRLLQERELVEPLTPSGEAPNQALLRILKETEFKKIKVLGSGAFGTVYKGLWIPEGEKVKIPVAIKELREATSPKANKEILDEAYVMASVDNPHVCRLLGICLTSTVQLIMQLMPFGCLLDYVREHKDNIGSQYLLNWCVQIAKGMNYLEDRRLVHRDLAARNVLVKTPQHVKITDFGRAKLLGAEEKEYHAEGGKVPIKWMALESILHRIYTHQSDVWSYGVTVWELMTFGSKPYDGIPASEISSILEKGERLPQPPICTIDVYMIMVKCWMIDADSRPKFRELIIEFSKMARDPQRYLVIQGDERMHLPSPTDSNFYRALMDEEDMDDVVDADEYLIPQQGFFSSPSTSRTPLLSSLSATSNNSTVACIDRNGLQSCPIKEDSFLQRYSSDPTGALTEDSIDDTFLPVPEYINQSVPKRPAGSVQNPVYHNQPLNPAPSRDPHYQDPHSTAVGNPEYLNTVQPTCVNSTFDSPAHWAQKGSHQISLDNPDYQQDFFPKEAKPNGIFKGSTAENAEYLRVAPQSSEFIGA

SMILES: C=CC(=O)Nc1cc(Nc2nccc(-c3cn(C)c4ccccc34)n2)c(OC)cc1N1CCC(C)(N)CC1
- inhibition [1]: Active
- Activity [2]: Dose-dependent-effect
- Activity [3]: Active
- inhibition [4]: Active
- inhibition [5]: Active
- inhibition [6]: Active
- inhibition [7]: Active
- inhibition [8]: 100%
- inhibition [9]: Active
- inhibition [10]: 36%
- inhibition [11]: Active

SMILES: [2H]C([2H])([2H])n1cc(-c2ccnc(Nc3cc(NC(=O)C=C)c(N4CC[C@@H](N(C)C)C4)cc3OC)n2)c2ccccc21
- bioavailability [12]: 65.1%
- AUC(0-t) at 24 h [13]: 10400 ng·h/mL
- MRT inf [14]: 8.14 h
- MRT inf [15]: 6.51 h
- MRT last at 24 h [16]: 6.76 h
- inhibition in vivo at 3 mg/kg [17]: 60.4%
- IC50 [18]: 600 nM
- IC50 [19]: 8930 nM
- half-life [20]: 6.07 h
- IC50 [21]: 6730 nM
- IC50 [22]: 5350 nM
- MRT last at 24 h [23]: 5.08 h
- clearance [24]: 39.8 mL/min/kg
- Ki [25]: 257 nM
- Vd [26]: 15.5 L/kg
- half-life [27]: 6.23 h
- AUC(0-inf) [28]: 9720 ng·h/mL
- Activity [29]: Non-toxic
- IC50 [30]: 2460 nM
- Activity [31]: Non-toxic
- IC50 [32]: 1750 nM
- AUC(0-t) at 24 h [33]: 4000 ng·h/mL
- Tmax [34]: 5 h
- AUC(0-inf) [35]: 4220 ng·h/mL
- Cmax [36]: 724 ng/mL
- IC50 [37]: 6810 nM

SMILES: [2H]C([2H])([2H])n1cc(-c2ccnc(Nc3cc(NC(=O)C=C)c(N4CCC(C)(N)CC4)cc3OC)n2)c2ccccc21
- bioavailability [12]: 59.6%
- AUC(0-t) at 24 h [13]: 8840 ng·h/mL
- MRT inf [15]: 16 h
- MRT last at 24 h [16]: 9.37 h
- inhibition in vivo at 3 mg/kg [17]: 51.3%
- IC50 [18]: 8000 nM
- IC50 [19]: 1600 nM
- half-life [20]: 13 h
- IC50 [21]: 850 nM
- IC50 [22]: 1370 nM
- MRT last at 24 h [23]: 7.17 h
- clearance [24]: 33.8 mL/min/kg
- Ki [25]: 2340 nM
- Vd [26]: 32.3 L/kg
- IC50 [38]: 788 nM
- Activity [29]: Non-toxic
- IC50 [39]: 6.8 nM
- IC50 [30]: 290 nM
- Activity [31]: Non-toxic
- IC50 [32]: 70 nM
- AUC(0-t) at 24 h [33]: 3740 ng·h/mL
- Tmax [34]: 6 h
- AUC(0-inf) [35]: 4940 ng·h/mL
- Cmax [36]: 568 ng/mL
- IC50 [37]: 930 nM
